Experiments:
[1] = test system: platelet aggregation induced by arachidonic acid; test: Inhibitory effect on platelet aggregation (arachidonic acid-induced, rabbit platelet-rich plasma); type: cell-based; conditions: arachidonic acid 137 μ moles/liter
Protocol: (1) Measurement of inhibitory effect on platelet aggregation:
Blood was drawn from ether-anesthetized rabbits (weighing 2.5 to 3.5 kg) through a canule inserted into the carotid artery. Immediately then, a 3.8% aqueous solution of sodium citrate was added to the collected blood in a volume of 1/10 of the volume of the blood after addition of the aqueous solution citrate solution. The blood was then centrifuged for 15 minutes at 150 G at room temperature to obtain plasma having platelet suspended therein as a supernatant.
An aliquot of 0.435 ml of platelet-rich plasma was put into the cell of an aggregometer adjusted to a temperature of 37° C. and a stirring speed of 1200 rpm. […] An aqueous solution of arachidonic acid as a platelet aggregation inducing agent (the final concentration of arachidonic acid is 137μ moles/liter) was added, and with stirring, changes in absorbance were measured for 10 minutes.
The effect of platelet aggregation inhibition of the test compound was calculated as follows: [formula] ΔC: a change in absorbance in a control run, ΔS: a change in absorbance when the test compound was added.
In the control run, 2.5 μl of dimethyl sulfoxide was added instead of the test compound.

[2] = test system: blood pressure (average arterial pressure); test: Blood pressure lowering activity in anesthetized rabbits; type: in vivo, rabbit; conditions: average of at least three rabbits
[3] = final concentration 3 μ moles/liter
[4] = final concentration 10 μ moles/liter
[5] = final concentration 30 μ moles/liter
[6] = final concentration 100 μ moles/liter

SMILES | inhibition of platelet aggregation [1, 3] [%] | inhibition of platelet aggregation [1, 4] [%] | inhibition of platelet aggregation [1, 5] [%] | Blood pressure lowering effect ([2]; 10 μg/kg i.v.) [mmHg] | Blood pressure lowering effect ([2]; 30 μg/kg i.v.) [mmHg] | Blood pressure lowering effect ([2]; 100 μg/kg i.v.) [mmHg] | inhibition of platelet aggregation ([1]; final concentration 1 μ moles/liter) [%] | inhibition of platelet aggregation [1, 6] [%]
CCOC(=O)c1c(C)cc2cnc(-c3ccccc3Cl)nc2c1C [Example 1, 2-(o-chlorophenyl)-7-ethoxycarbonyl-6,8-dimethylquinazoline] | 100 | 100 | 100 | 12 | 22 | 49 | – | –
CCOC(=O)c1c(C)cc2cnc(-c3ccccc3)nc2c1C [Example 2, 2-phenyl-7-ethoxycarbonyl-6,8-dimethylquinazoline] | – | 100 | 100 | – | – | 15 | – | –
CCOC(=O)c1c(C)cc2cnc(-c3ccccc3C)nc2c1C [Example 3, 2-(o-methylphenyl)-7-ethoxycarbonyl-6,8-dimethylquinazoline] | – | 100 | 100 | – | – | 20 | – | –
CCOC(=O)c1c(C)cc2cnc(-c3ccccc3F)nc2c1C [Example 4, 2-(o-fluorophenyl)-7-ethoxycarbonyl-6,8-dimethylquinazoline] | 100 | – | – | – | – | 32 | 100 | –
CCOC(=O)c1c(C)cc2cnc(-c3ccccc3C(F)(F)F)nc2c1C [Example 5, 2-(o-trifluoromethylphenyl)-7-ethoxycarbonyl-6,8-dimethylquinazoline] | – | – | – | – | – | 25 | – | 100
CCOC(=O)c1c(C)cc2cnc(C)nc2c1C [Example 6, 2-methyl-7-ethoxycarbonyl-6,8-dimethylquinazoline] | – | – | – | – | – | 12 | – | 100
CCOC(=O)c1c(C)cc2cnc(Cc3ccccc3)nc2c1C [Example 7, 2-benzyl-7-ethoxycarbonyl-6,8-dimethylquinazoline] | – | – | – | – | – | 18 | – | 100

— patent US4517189A, “2,6,7,8-Substituted quinazolines, process for production thereof, and use thereof” (Showa Denko K.K., priority 1983, dated 1985)
